For 24 molecules, Emax and EC50 results are on record in patent US10934276B2, “Positive allosteric modulators of the muscarinic acetylcholine receptor M4” (Vanderbilt University, priority 2016, dated 2021).

The structures appear in SMILES notation.

In this assay the target is T1, Human M4 (Homo sapiens, UniProt P08173).
T1 construct: expressed in transfected cells; host or cells: CHO-K1 (ATCC), stably expressing hM4 and Gqi5
T1 sequence (P08173 1-479): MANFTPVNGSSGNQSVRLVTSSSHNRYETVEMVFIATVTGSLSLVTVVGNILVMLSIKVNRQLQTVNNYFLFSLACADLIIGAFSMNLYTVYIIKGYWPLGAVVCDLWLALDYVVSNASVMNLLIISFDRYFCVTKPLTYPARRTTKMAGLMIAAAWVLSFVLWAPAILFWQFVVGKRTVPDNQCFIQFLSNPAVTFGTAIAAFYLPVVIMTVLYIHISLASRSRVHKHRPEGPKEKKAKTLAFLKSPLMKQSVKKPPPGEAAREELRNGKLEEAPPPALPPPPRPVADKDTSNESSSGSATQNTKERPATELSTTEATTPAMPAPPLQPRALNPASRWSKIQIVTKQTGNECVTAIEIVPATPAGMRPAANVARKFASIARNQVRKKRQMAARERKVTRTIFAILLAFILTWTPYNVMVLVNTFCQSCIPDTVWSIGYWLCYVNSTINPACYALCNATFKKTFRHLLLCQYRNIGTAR
The assay is described as follows: mAChR M4 cell-based functional assay (calcium flux, potentiation of EC20 acetylcholine response in CHO-K1 hM4-Gqi5 cells). As to conditions: for Emax at 30 µM: CHO-K1, % ACh maximum at 30 μM, human M4; for EC50: positive allosteric modulator mode, EC20 acetylcholine, CHO-K1 cells with human M4 and Gqi5. How it is done:
Human M4 cDNA, along with the chimeric G protein Gqi5, were transfected into Chinese hamster ovary (CHO—K1) cells purchased from the American Type Culture Collection using Lipofectamine2000. hM4-Gqi5 cells were grown in Ham's F-12 medium containing 10% heat-inactivated fetal bovine serum (FBS), 20 mM HEPES, 50 μg/mL G418 sulfate, and 500 μg/mL Hygromycin B. rM4-Gqi5 cells were grown in DMEM containing 10% heat-inactivated FBS, 20 mM HEPES, 400 μg/mL G418 sulfate, and 500 μg/mL Hygromycin B.
For high throughput measurement of agonist-evoked increases in intracellular calcium, CHO—K1 cells stably expressing muscarinic receptors were plated in growth medium lacking G418 and hygromycin at 15,000 cells/20 μL/well in Greiner 384-well black-walled, tissue culture (TC)-treated, clear-bottom plates (VWR). Cells were incubated overnight at 37° C. and 5% CO2. The next day, cells were washed using an ELX 405 (BioTek) with assay buffer; the final volume was then aspirated to 20 μL. Next, 20 μL of a 2.3 μM stock of Fluo-4/acetoxymethyl ester (Invitrogen, Carlsbad, Calif.), prepared as a 2.3 mM stock in DMSO and mixed in a 1:1 ratio with 10% (w/v) Pluronic F-127 and diluted in assay buffer, was added to the wells and the cell plates were incubated for 50 min at 37° C. and 5% CO2. Dye was removed by washing with the ELX 405 and the final volume was aspirated to 20 μL. Compound master plates were formatted in an 11 point concentration-response curve (CRC) format (1:3 dilutions) in 100% DMSO with a starting concentration of 10 mM using a BRAVO liquid handler (Agilent). Test compound CRCs were then transferred to daughter plates (240 nL) using the Echo acoustic plate reformatter (Labcyte, Sunnyvale, Calif.) and then diluted into assay buffer (40 μL) to a 2× stock using a Thermo Fisher Combi (Thermo Fisher Scientific, Waltham, Mass.).
Calcium flux was measured using the Functional Drug Screening System (FDSS) 6000 or 7000 (Hamamatsu Corporation, Tokyo, Japan) as an increase in the fluorescent static ratio. Compounds were applied to cells (20 μL, 2×) using the automated system of the FDSS at 2-4 seconds into the protocol and the data were collected at 1 Hz. At 144 seconds, 10 μL of an EC20 concentration of the muscarinic receptor agonist acetylcholine was added (5×), followed by the addition of 12 μL of an EC80 concentration of acetylcholine at the 230 second time point (5×). Agonist activity was analyzed as a concentration-dependent increase in calcium mobilization upon compound addition. Positive allosteric modulator activity was analyzed as a concentration-dependent increase in the EC20 acetylcholine response. With the acetylcholine EC20 set as baseline, the test compound EC50 is determined as the concentration that produces an increase above baseline of 50% of the maximum increase in acetylcholine response elicted by the test compound. Antagonist activity was analyzed as a concentration-dependent decrease in the EC80 acetylcholine response. Concentration-response curves were generated using a four-parameter logistical equation in XLFit curve fitting software (IDBS, Bridgewater, N.J.) for Excel (Microsoft, Redmond, Wash.) or Prism (GraphPad Software, Inc., San Diego, Calif.).
Compounds were synthesized as described above. Activity (EC50 and Emax) was determined in the mAChR M4 cell-based functional assay as described above and the data are shown in Table 3. The compound numbers correspond to the compound numbers used in Examples 2-4 and Tables 1 and 2.

In general, Emax refers to the greatest response seen or fitted, relative to the assay's reference. A word on the EC50: it is the concentration needed to bring the measured effect to its halfway point. Regarding `Cc1cc(C)c2cc(C(=O)NC3CN(c4nccc(Br)c4Cl)C3)ccc2n1` [Compound 11, N-[1-(4-bromo-3-chloro-2-pyridyl)azetidin-3-yl]-2,4-dimethyl-quinoline-6-carboxamide], the Emax at 30 µM was 27.5% and the EC50 amounted to 2200 nM.
For `Cc1cc(C)c2cc(C(=O)NC3CN(c4ncc(OC(C)C)cn4)C3)ccc2n1` [Compound 4, N-[1-(5-isopropoxypyrimidin-2-yl)azetidin-3-yl]-2,4-dimethyl-quinoline-6-carboxamide] the same measures were 49.3% and 5300 nM.
For `Cc1cc(C)c2cc(C(=O)NC3CN(c4ccnc(F)c4F)C3)ccc2n1` [Compound 12, N-[1-(2,3-difluoro-4-pyridyl)azetidin-3-yl]-2,4-dimethyl-quinoline-6-carboxamide] the same measures were 65.4% and 170 nM.
Take `Cc1nnc2ccc(C(=O)NC3CN(c4ncc(C(F)(F)F)cc4Cl)C3)cc2c1C` [Compound 28, N-[1-[3-chloro-5-(trifluoromethyl)-2-pyridyl]azetidin-3-yl]-3,4-dimethyl-cinnoline-6-carboxamide]: the Emax at 30 µM came to 75.7% and the EC50 amounted to 2630 nM.
Taken in the same sequence, the figures for `Cc1nnc2ccc(C(=O)NC3CN(c4ccc(F)cn4)C3)cc2c1C` [Compound 24, N-[1-(5-fluoro-2-pyridyl)azetidin-3-yl]-3,4-dimethyl-cinnoline-6-carboxamide] were 79.2% and more than 10000 nM.
For the molecule `COc1ccc(CNC(=O)c2ccc3nc(C)cc(C)c3c2)cc1F` [Compound 1, N-[(3-fluoro-4-methoxy-phenyl)methyl]-2,4-dimethyl-quinoline-6-carboxamide], the Emax at 30 µM came to 53.1% and the EC50 is more than 10000 nM.
For `Cc1nnc2ccc(C(=O)NC3CN(c4cc(Cl)ncc4Cl)C3)cc2c1C` [Compound 30, N-[1-(2,5-dichloro-4-pyridyl)azetidin-3-yl]-3,4-dimethyl-cinnoline-6-carboxamide] the same measures were 91.6% and 120 nM.
Regarding `Cc1nnc2ccc(C(=O)NC3CN(c4cccc(Cl)n4)C3)cc2c1C` [Compound 32, N-[1-(6-chloro-2-pyridyl)azetidin-3-yl]-3,4-dimethyl-cinnoline-6-carboxamide], the Emax at 30 µM came out at 77.2% and the EC50 is 1320 nM.
Regarding `Cc1nnc2ccc(C(=O)NC3CC(F)C3)cc2c1C` (stereo not drawn) [Compound 40, N-(3-fluorocyclobutyl)-3,4-dimethyl-cinnoline-6-carboxamide], the Emax at 30 µM was 59.3% and the EC50 is more than 10000 nM.
Taken in the same sequence, the figures for `Cc1cc(C)c2cc(C(=O)NC3CN(c4cc(Cl)nc(Cl)c4)C3)ccc2n1` [Compound 9, N-[1-(2,6-dichloro-4-pyridyl)azetidin-3-yl]-2,4-dimethyl-quinoline-6-carboxamide] were 26.1% and 370 nM.
For `Cc1nnc2ccc(C(=O)NCc3ccc(C(C)(C)O)cc3)cc2c1C` [Compound 16, N-[[4-(1-hydroxy-1-methyl-ethyl)phenyl]methyl]-3,4-dimethyl-cinnoline-6-carboxamide], the Emax at 30 µM worked out at 71.2% and the EC50 was more than 10000 nM.
As to `Cc1nnc2ccc(C(=O)NC3CN(c4cccc(F)n4)C3)cc2c1C` [Compound 33, N-[1-(6-fluoro-2-pyridyl)azetidin-3-yl]-3,4-dimethyl-cinnoline-6-carboxamide], the Emax at 30 µM came out at 84.5% and the EC50 was 670 nM.
For `Cc1cc(C)c2cc(C(=O)NC3CN(c4nccc(Br)c4F)C3)ccc2n1` [Compound 13, N-[1-(4-bromo-3-fluoro-2-pyridyl)azetidin-3-yl]-2,4-dimethyl-quinoline-6-carboxamide] the same measures were 59.5% and 1600 nM.
Taken in the same sequence, the figures for `Cc1cc(N2CC(NC(=O)c3ccc4nc(C)cc(C)c4c3)C2)cc(OC(F)F)n1` [Compound 8, N-[1-[2-(difluoromethoxy)-6-methyl-4-pyridyl]azetidin-3-yl]-2,4-dimethyl-quinoline-6-carboxamide] were 41.1% and 1700 nM.
In the case of `Cc1cc(C)c2cc(C(=O)NCc3ccncc3)ccc2n1` [Compound 6, 2,4-dimethyl-N-(4-pyridylmethyl)quinoline-6-carboxamide], the Emax at 30 µM is 26.4% and the EC50 was more than 10000 nM.
For `Cc1nnc2ccc(C(=O)NC3CC3)cc2c1C` [Compound 39, N-cyclopropyl-3,4-dimethyl-cinnoline-6-carboxamide] the same measures were 82.6% and more than 10000 nM.
As for `Cc1nnc2ccc(C(=O)NC3CN(c4ncccc4F)C3)cc2c1C` [Compound 34, N-[1-(3-fluoro-2-pyridyl)azetidin-3-yl]-3,4-dimethyl-cinnoline-6-carboxamide], the Emax at 30 µM came to 83.4% and the EC50 turned out to be 1220 nM.
For the molecule `Cc1cc(C)c2cc(C(=O)NCc3cccnc3)ccc2n1` [Compound 7, 2,4-dimethyl-N-(3-pyridylmethyl)quinoline-6-carboxamide], the Emax at 30 µM is 32% and the EC50 is more than 10000 nM.
Turning to `Cc1nnc2ccc(C(=O)NC3CN(c4cnc(C5CC5)cn4)C3)cc2c1C` [Compound 22, N-[1-(5-cyclopropylpyrazin-2-yl)azetidin-3-yl]-3,4-dimethyl-cinnoline-6-carboxamide], the Emax at 30 µM was 79.9% and the EC50 is 2510 nM.
Taken in the same sequence, the figures for `Cc1cc(C)c2cc(C(=O)NC3CN(c4ccnc(OC(F)F)c4)C3)ccc2n1` [Compound 10, N-[1-[2-(difluoromethoxy)-4-pyridyl]azetidin-3-yl]-2,4-dimethyl-quinoline-6-carboxamide] were 55.5% and 1400 nM.
Take `Cc1nnc2ccc(C(=O)NC3CN(c4ncc(OC(C)C)cn4)C3)cc2c1C` [Compound 20, N-[1-(5-isopropoxypyrimidin-2-yl)azetidin-3-yl]-3,4-dimethyl-cinnoline-6-carboxamide]: the Emax at 30 µM worked out at 87.8% and the EC50 was 3200 nM.
With `Cc1nnc2ccc(C(=O)NC3CN(c4ccc(C#N)cn4)C3)cc2c1C` [Compound 25, N-[1-(5-cyano-2-pyridyl)azetidin-3-yl]-3,4-dimethyl-cinnoline-6-carboxamide], the Emax at 30 µM came out at 80.6% and the EC50 is 1030 nM.
For `Cc1nnc2ccc(C(=O)NC3CN(c4ccnc(C(F)(F)F)c4)C3)cc2c1C` [Compound 37, 3,4-dimethyl-N-[1-[2-(trifluoromethyl)-4-pyridyl]azetidin-3-yl]cinnoline-6-carboxamide] the same measures were 88% and 750 nM.
For `Cc1cc(C)c2cc(C(=O)NC3CN(c4ncc(C(F)(F)F)cn4)C3)ccc2n1` [Compound 3, 2,4-dimethyl-N-[1-[5-(trifluoromethyl)pyrimidin-2-yl]azetidin-3-yl]quinoline-6-carboxamide] the same measures were 44.2% and 6900 nM.
